Counter-ions that a name gives are not always drawn. One block for each compound: values may come before it.
Assays:
[1] = target: T1, human organic cation/carnitine transporter (SLC22A5, OCTN2) (Homo sapiens, UniProt O76082); experiment: OCTN2 cis-inhibition of L-carnitine uptake in OCTN2-MDCK cells; assay type: cell-based; conditions: for potency estimated from few doses: read-out: Ki estimated from one concentration
T1 sequence (O76082 1-557): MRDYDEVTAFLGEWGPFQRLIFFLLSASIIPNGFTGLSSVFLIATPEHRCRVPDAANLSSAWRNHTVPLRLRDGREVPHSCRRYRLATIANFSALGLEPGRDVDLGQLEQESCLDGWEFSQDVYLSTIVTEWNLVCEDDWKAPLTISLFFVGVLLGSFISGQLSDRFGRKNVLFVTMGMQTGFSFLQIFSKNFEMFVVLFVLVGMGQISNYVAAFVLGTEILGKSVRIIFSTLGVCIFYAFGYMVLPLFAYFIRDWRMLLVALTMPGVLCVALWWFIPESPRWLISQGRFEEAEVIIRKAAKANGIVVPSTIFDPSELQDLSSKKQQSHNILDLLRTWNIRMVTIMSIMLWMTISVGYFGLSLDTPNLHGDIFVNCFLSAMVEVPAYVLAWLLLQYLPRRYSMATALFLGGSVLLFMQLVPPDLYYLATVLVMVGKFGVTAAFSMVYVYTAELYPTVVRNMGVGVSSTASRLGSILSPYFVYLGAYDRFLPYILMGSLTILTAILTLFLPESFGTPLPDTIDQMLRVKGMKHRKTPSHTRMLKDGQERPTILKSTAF

[2] = target: T2, excitatory amino acid transporters (SLC1A6, EAAT4) (Rattus norvegicus, UniProt O35921); experiment: EAAT4 cis-inhibition of glutamate uptake in stably transfected HEK 293 cells; assay type: cell-based; conditions: for potency estimated from few doses: HEK293, read-out: Ki estimated from one concentration
T2 sequence (O35921 1-561): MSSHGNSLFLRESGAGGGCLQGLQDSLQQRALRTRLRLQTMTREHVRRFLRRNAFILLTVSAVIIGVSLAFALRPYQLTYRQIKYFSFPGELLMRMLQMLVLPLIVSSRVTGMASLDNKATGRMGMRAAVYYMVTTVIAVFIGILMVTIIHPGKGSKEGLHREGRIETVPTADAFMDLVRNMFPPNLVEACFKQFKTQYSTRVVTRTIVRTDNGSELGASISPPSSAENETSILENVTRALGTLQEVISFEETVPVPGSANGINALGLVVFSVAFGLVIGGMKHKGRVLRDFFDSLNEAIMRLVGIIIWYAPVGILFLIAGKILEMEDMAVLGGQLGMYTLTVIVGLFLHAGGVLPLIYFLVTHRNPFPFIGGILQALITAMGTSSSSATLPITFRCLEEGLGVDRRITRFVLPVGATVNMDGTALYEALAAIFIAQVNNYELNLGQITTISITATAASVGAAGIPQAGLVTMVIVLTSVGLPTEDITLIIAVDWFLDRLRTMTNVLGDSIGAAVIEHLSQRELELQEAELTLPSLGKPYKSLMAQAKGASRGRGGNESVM

OCTN2 = target: T3, OCTN2 (Homo sapiens, UniProt O76082); experiment: L-carnitine uptake study; assay type: cell-based; conditions: substrate uptake studies
T3 sequence (O76082 1-557): T1 sequence (O76082 1-557)

EAAT4 = EAAT4 (Rattus norvegicus, UniProt O35921); conditions: substrate uptake studies
[3] = Precipitation / solubility of inhibitor in transport buffer; assay type: physicochemical; conditions: for precipitation / solubility in donor solution: ASBT inhibition study, 1-[…] DMSO for low water soluble compounds; for highest concentration at which no precipitation was observed: transport buffer of the ASBT inhibition study, precipitation observed above it
[4] = target: T4, human apical sodium-dependent transporter (SLC10A2, ASBT) (Homo sapiens, UniProt Q12908); conditions: 50 µM
T4 sequence (Q12908 1-348): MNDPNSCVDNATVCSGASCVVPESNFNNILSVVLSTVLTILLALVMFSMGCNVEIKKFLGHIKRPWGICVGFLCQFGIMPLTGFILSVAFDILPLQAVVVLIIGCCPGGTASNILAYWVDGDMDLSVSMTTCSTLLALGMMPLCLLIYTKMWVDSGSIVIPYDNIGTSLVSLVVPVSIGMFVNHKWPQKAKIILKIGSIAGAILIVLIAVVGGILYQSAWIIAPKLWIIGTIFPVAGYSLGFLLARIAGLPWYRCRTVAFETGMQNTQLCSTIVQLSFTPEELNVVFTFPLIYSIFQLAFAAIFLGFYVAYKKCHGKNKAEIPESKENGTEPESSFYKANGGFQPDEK

[5] = target: T4, human apical sodium-dependent transporter (SLC10A2, ASBT); experiment: ASBT cis-inhibition of taurocholate uptake in ASBT-MDCK cells; conditions: for Ki: mean±S.E.
ASBT = ASBT (Homo sapiens, UniProt Q12908); conditions: substrate uptake studies
[6] = Ki, inhibitor concentration range 0-5 μM
[7] = Ki, inhibitor concentration range 0-10 μM
[8] = Ki, inhibitor concentration range 0-20 μM
[9] = Ki, inhibitor concentration range 0-50 μM
[10] = Ki, inhibitor concentration range 0-100 μM
[11] = Ki, inhibitor concentration range 0-200 μM
[12] = Ki, inhibitor concentration range 0-[…]
[13] = Reference Ki, from the comprehensive inhibition profile
[14] = Ki, inhibitor concentration range 0-500 μM

SMILES: C[N+](C)(C)C[C@@H](O)CC(=O)[O-] [D-carnitine]
- Ki ([1]; Ki, inhibitor concentration range 0-1 μM): 8.9 ± 4 µM
- Ki [1, 6]: 10.2 ± 1.1 µM
- Ki [1, 7]: 11.5 ± 0.9 µM
- Ki [1, 8]: 11.8 ± 0.7 µM
- Ki [1, 9]: 12 ± 0.6 µM
- Ki [1, 10]: 12.1 ± 0.5 µM
- Ki [1, 11]: 12.2 ± 0.5 µM
- Ki [1, 12]: 9 ± 1.5 µM
- Ki [1, 13]: 12.2 µM
- potency estimated from few doses [1]: 12.2 ± 0.5 µM

SMILES: N[C@@H](CC(=O)O)C(=O)O [L-Aspartic acid]
- potency estimated from few doses [2]: 3.03 ± 0.3 µM
- Ki [2, 6]: 1.72 ± 0.14 µM
- Ki [2, 7]: 1.77 ± 0.12 µM
- Ki [2, 8]: 1.83 ± 0.14 µM
- Ki [2, 9]: 1.88 ± 0.18 µM
- Ki [2, 10]: 1.92 ± 0.23 µM
- Ki [2, 12]: 2.01 ± 0.13 µM
- Ki [2, 13]: 1.92 µM

SMILES: C[N+](C)(C)C[C@H](O)CC(=O)[O-] [L-carnitine]
- Kt (Michaelis-Menten constant for transporter mediated transport) (OCTN2): 5.33 µM

SMILES: N[C@@H](CCC(=O)O)C(=O)O [glumatate, glutamate]
- Kt (Michaelis-Menten constant for transporter mediated transport) (EAAT4): 2.02 µM

SMILES: COc1cccc2c1C(=O)c1c(O)c3c(c(O)c1C2=O)C[C@@](O)(C(C)=O)C[C@@H]3O[C@H]1C[C@H](N)[C@H](O)[C@H](C)O1 [Daunorubicin hydrochloride, daunorubicin hydrochloride]
- Ki [1, 10]: 424 ± 122 µM
- Ki [1, 11]: 375 ± 63 µM
- Ki [1, 14]: 443 ± 56 µM
- Ki ([1]; Ki, inhibitor concentration range 0-1000 μM): 484 ± 48 µM
- Ki ([1]; Ki, inhibitor concentration range 0-1500 μM): 496 ± 41 µM
- Ki [1, 13]: 496 µM
- potency estimated from few doses [1]: 488 ± 47 µM

SMILES: N[C@H](CC(=O)O)C(=O)O [D-Aspartic acid]
- potency estimated from few doses [2]: 8.4 ± 0.81 µM
- Ki [2, 6]: 9.06 ± 1.51 µM
- Ki [2, 7]: 8.72 ± 0.76 µM
- Ki [2, 8]: 8.58 ± 0.59 µM
- Ki [2, 9]: 8.95 ± 0.57 µM
- Ki [2, 10]: 9.21 ± 0.57 µM
- Ki [2, 11]: 9.54 ± 0.75 µM
- Ki [2, 13]: 9.54 µM

SMILES: C[C@H](CCC(=O)NCCS(=O)(=O)O)[C@H]1CC[C@H]2[C@@H]3[C@H](O)C[C@@H]4C[C@H](O)CC[C@]4(C)[C@H]3C[C@H](O)[C@]12C [taurocholate]
- Kt (Michaelis-Menten constant for transporter mediated transport) (ASBT): 5.03 µM

Second part, led by results:

- highest concentration at which no precipitation was observed [3]: 50 µM
- inhibition [4]: 39.7%
- Ki ([5]; inhibitor concentration range 0-50 μM): 43.9 µM
SMILES: CCOC(=O)C1=C(C)NC(C)=C(C(=O)OC)C1c1cccc([N+](=O)[O-])c1 (stereo not shown) [nitrendipine]
- precipitation / solubility in donor solution [3]: incomplete solubility at higher drug concentrations

- highest concentration at which no precipitation was observed [3]: 1000 µM
- Ki ([5]; inhibitor concentration range 0-1000 μM): 460 µM
- inhibition at 1000 µM ([5]; read-out: percent taurocholate inhibited at the highest inhibitor concentration): 58.4%
SMILES: Cc1cccc(Nc2ccncc2S(=O)(=O)NC(=O)NC(C)C)c1 [torsemide]
- precipitation / solubility in donor solution [3]: incomplete solubility at higher drug concentrations

- Ki [1, 7]: 14.9 ± 2 µM
- Ki [1, 8]: 14.5 ± 1.2 µM
- Ki [1, 9]: 14.6 ± 1.5 µM
- Ki [1, 10]: 15.7 ± 1.6 µM
- Ki [1, 11]: 15.9 ± 1.5 µM
- Ki [1, 14]: 15.9 ± 1.4 µM
- Ki [1, 13]: 15.9 µM
- potency estimated from few doses [1]: 14.7 ± 3.1 µM
SMILES: CC[C@]1(O)C[C@H]2CN(CCc3c([nH]c4ccccc34)[C@@](C(=O)OC)(c3cc4c(cc3OC)N(C=O)[C@H]3[C@@](O)(C(=O)OC)[C@H](OC(C)=O)[C@]5(CC)C=CCN6CC[C@]43[C@@H]65)C2)C1 [Vincristine sulfate]
